Data as given in PubChem BioAssay AID493085 (Broad Institute, 2011).
Inconclusive results are not listed. Activity calls are given as the source filed them.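 The calls were made as follows: active = falling-signal curve with half-maximal concentration at or below ten times the top tested dose; inconclusive = flat fit at 30 to 70% inhibition, or poor fit; inactive = signal rise, flat within 30%, or potency beyond limit.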

Test system: NIH3T3 R4 HSE-GFP/Tet-RFP reporter, fluorescence, 48 h
Experiment: dox-induced RFP signal loss in R4-3T3 cells – cell-based, NIH3T3 R4, HSE-GFP and Tet-On RFP, cherry-pick, set 3, dose response (AID 493085);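 also: cells heat shocked 2 h at 42 °C with doxycycline to induce reporters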

| Compound | AC50 |
| --- | --- |
| C(=N\NC1=Nc2cccc3cccc1c23)/c1ccccn1 | 0.95 µM |
| COc1ccc2c(c1)c(CC(=O)Nc1nnc(C3CC3)s1)c(C)n2C(=O)c1ccc(Cl)cc1 | 0.284 µM |
| O=c1c(Cl)c(Cl)cnn1-c1ccccc1 | 14.4 µM |
| CCOc1cc(C(=O)NCc2ccccc2)ccc1OCC(=O)N1CCOCC1 | > 19.5 µM (inactive) |
| O=C(CCCCCn1c(=S)[nH]c2cc3c(cc2c1=O)OCO3)N1CCN(C(=O)c2ccco2)CC1 | > 19.5 µM (inactive) |
| Cc1ccc(-n2ncc(Br)c(Br)c2=O)cc1 | 18.3 µM |
| CCc1ccc(S(=O)(=O)/N=C2\C=C(Nc3ccc(O)cc3)C(=O)c3ccccc32)cc1 | 1.83 µM |
| CC12CCC(C/C1=N\N=C1\NC(=O)/C(=C\c3ccc(Cl)cc3)S1)C2(C)C (configuration not stated) | 1.82 µM |
| Fc1ccc(-n2cc(-c3ccccc3)c3c(N4CCOCC4)ncnc32)cc1 | 6.34 µM |
| CC1(C)C[C@H]2C=C(C=O)[C@]3(C=O)C[C@]3(C)[C@H]2C1 | 17.9 µM |
| N#CC1=C(N)C(C#N)(C#N)C(c2cccnc2)C2CC(c3ccccc3)CC=C12 (configuration not stated) | 19.2 µM |
| O=C(C#Cc1ccccc1)c1ccco1 | 4.11 µM |
| CCCCn1c(C(C)NC(=O)CC)nc2ccccc21 (configuration not stated) | > 19.5 µM (inactive) |
| c1ccc(OCCSc2nc3ccccc3o2)cc1 | > 19.5 µM (inactive) |
| CCOCCn1c(SCC(=O)OCc2ccccc2)nc2c1c(=O)[nH]c(=O)n2C | > 19.5 µM (inactive) |
| NC(=O)c1cc2ccncc2c2ccccc12 | 0.805 µM |
| CCCC(=O)N1CCN(c2ccc(NC(=O)c3cc4ccccc4o3)cc2Cl)CC1 | 13.1 µM |
| O=c1cc(-c2ccccc2)c2ccc(O)cc2o1 | > 19.5 µM (inactive) |
| CC1(C)CC(NC(=O)COc2ccccc2Cl)CC(C)(C)N1 | > 19.5 µM (inactive) |
| COc1ccc(NC(=O)CSc2nnc3ccc(-c4ccncc4)nn23)cc1OC | > 19.5 µM (inactive) |
| COc1ccc(NCc2nnc(SCC(=O)Nc3cc(C(F)(F)F)ccc3Cl)o2)cc1 | > 19.5 µM (inactive) |
| Cc1nc(NCc2ccco2)c2c(C)c(C)sc2n1 | 0.435 µM |
| CC(C)(C)c1ccc2c(c1)OC(C(=O)N/N=C\c1ccc[nH]1)CO2 (configuration not stated) | 0.182 µM |
| Cc1ccc(NC2=C/C(=N\S(=O)(=O)c3cccs3)c3ccccc3C2=O)c(C)c1 | 1.51 µM |
| CC(C)(C)c1nn(-c2ccccc2)c2[nH]c(=O)c(CNc3ccc4c(c3)OCCO4)cc12 | > 19.5 µM (inactive) |
| CCn1c(SCC(=O)Nc2oc(C)c3c(C)n[nH]c(=O)c23)nc2sc(C)c(C)c2c1=O | > 19.5 µM (inactive) |

| Compound | AC50 |
| --- | --- |
| Cn1c(C(C#N)C(=O)c2sc3ccccc3c2Cl)nc2ccccc21 (configuration not stated) | > 19.5 µM (inactive) |
| CCSc1nnc(NC(=O)C(Cc2ccccc2)n2cccc2)s1 (configuration not stated) | > 19.5 µM (inactive) |
| O=[N+]([O-])c1ccc(S(=O)(=O)c2ccccc2)nc1 | 19.3 µM |
| N#Cc1cccc(C#N)c1Oc1ccc(S(=O)(=O)Nc2ccc(Cl)cc2)cc1 | 18.8 µM |
| CCOC(=O)c1sc(NC(=O)CSc2n[nH]c(-c3ccccc3)n2)c(C#N)c1C | 14.6 µM |
| C#CC(=O)N(c1cc(OC)ccc1OC)C(C(=O)NC1CCCC1)c1cccs1 (configuration not stated) | 5.39 µM |
| CCCCCn1c(=O)c(C(=O)Nc2ccccn2)c(O)c2ccccc21 | 1.4 µM |
| CC(C)(C)C(=O)NC(=S)NNC(=O)c1sc2ccccc2c1Cl | > 19.5 µM (inactive) |
| S=C1Cc2ccccc2N1 | 2.46 µM |
| COc1ccc(N2CCN(C(CNC(=O)C(=O)NCc3ccncc3)c3ccco3)CC2)cc1 (configuration not stated) | > 19.5 µM (inactive) |
| CC(=O)c1ccc(NC(=O)C2CCN(S(=O)(=O)c3cccc4cccnc34)CC2)cc1 | > 19.5 µM (inactive) |
| CCOC(=O)c1c(N)sc2c(O)c(Br)ccc12 | > 19.5 µM (inactive) |
| CC1CC(C)CN(C(=O)c2ccc(CSc3nc4ccncc4[nH]3)cc2)C1 (configuration not stated) | 13.3 µM |
| CCc1ccc(C(=O)Cn2ncc(Cl)c(Cl)c2=O)cc1 | 18.6 µM |
| O=C(CCl)Nc1ccc(Sc2ccc(NC(=O)CCl)cc2)cc1 | 18.3 µM |
| COc1ccc(C(=O)c2c(C(F)(F)F)oc3c2C(=O)c2ccccc2C3=O)cc1 | 2.89 µM |
| Cn1c(-c2nonc2N)nc2ccccc21 | > 19.5 µM (inactive) |
| Cc1ccc(S(=O)(=O)c2ncccc2[N+](=O)[O-])cc1 | 16.5 µM |
| O=C(Nc1ccccc1N1CCCCC1)C1CCN(C(=O)c2ccc(Cl)cc2)CC1 | > 19.5 µM (inactive) |
| COCC1CCCCN1C(=O)c1cc(COc2ccc3ncccc3c2)on1 (configuration not stated) | 0.448 µM |
| COc1ccc(OCc2cccc(C(=O)Nn3cc([N+](=O)[O-])cn3)c2)cc1 | 9.72 µM |
| CS(=O)(=O)c1nc(-c2ccccc2)cc(C(F)(F)F)n1 | 1.81 µM |
| Cc1cc(C)c(NC(=O)CSc2nncn2-c2cccnc2)c(C)c1 | > 19.5 µM (inactive) |
| O=[N+]([O-])c1cnc(Sc2ccncn2)s1 | 13.1 µM |
| CC1CCc2nc(N)c(C#N)c(-c3cccnc3)c2C1 (configuration not stated) | 0.708 µM |
| CCOC(=O)c1ccc(-n2[nH]c(-c3ccccc3)cc2=O)cc1 | 4.13 µM |

| Compound | AC50 |
| --- | --- |
| CCC(Sc1nc(C)cc(C)n1)C(=O)NC1=NN=C(c2ccc(C)cc2)CS1 (configuration not stated) | 14.8 µM |
| CC(C)c1ccc(-c2nc3ccccc3s2)cc1 | > 19.5 µM (inactive) |
| O=C(CCl)N(c1ccccc1)C1CCCCC1 | 4.93 µM |
| CCOc1c2ccc(C(=O)NCc3ccccc3OC)cc2nn1CC | > 19.5 µM (inactive) |
| O=C(O)c1ccc(NC2=C(Cl)C(=O)c3ccccc3C2=O)cc1 | 18.6 µM |
| CSc1ccc(CN(C)Cc2cc(=O)oc3c(C)c(C)ccc23)cc1 | 17.1 µM |
| CC1=C(C(=O)OCc2ccc3c(c2)OCO3)C(c2ccc(F)cc2)NC(=O)N1 (configuration not stated) | 0.27 µM |
| CCNC(=S)N(C)CCc1cc2c(c(OC)c1C=C1C(=O)N(C)C(=O)N(C)C1=O)OCO2 | > 19.5 µM (inactive) |
| COc1ccc(C)cc1NS(=O)(=O)c1ccc(-c2cnc(C3CC3)o2)cc1 | 2.11 µM |
| Cc1cc(C)nc(NNC2=CC(=[N+]3CCCCC3)CC(C)(C)C2)n1 | 14.5 µM |
| Cc1sc2ncnc(NCCc3ccc(S(N)(=O)=O)cc3)c2c1C | 0.185 µM |
| CCCCCCc1cc2cc(S(=O)(=O)c3ccc(F)c(Cl)c3)c(=O)oc2cc1O | 1.52 µM |
| CN1C(C(=O)Nc2ccc(OC(F)(F)F)cc2)=CC(c2cccs2)=NS1(=O)=O | 17.7 µM |
| O=c1c2ccc(Cl)cc2nc(-c2cccc(C(F)(F)F)c2)n1O | 18.2 µM |
| OCCCNc1nccc(-c2cc(Nc3cccc(Cl)c3)ncn2)n1 | 0.354 µM |
| COc1cc2c(cc1OC)C(c1ccc(-c3ccc(Cl)c(Cl)c3)o1)=NCC2 | 18.8 µM |
| CCc1cc(C)cc(OCCNC(=O)c2cncc(Br)c2)c1 | > 19.5 µM (inactive) |
| CCOc1ccc(-n2c(C)c(C(C)=O)c3cc(OC(C)=O)ccc32)cc1 | 2.24 µM |
| COc1ccc(S(=O)(=O)N2CCCCCC2)cc1C(=O)OCC(=O)NC(C)(C)C | > 19.5 µM (inactive) |
| Cc1cccc(C(=O)NC(=S)N2CCN(c3ccc([N+](=O)[O-])cc3)CC2)c1 | > 19.5 µM (inactive) |
| CC(=O)c1cn(CC(=O)Nc2ccccc2C)c2ccccc12 | 2.59 µM |
| CC1CCCCN1CC(=O)Nc1ccccc1Sc1ccccc1 (configuration not stated) | 15.1 µM |
| O=C1C(Nc2ccccc2)=C/C(=N/S(=O)(=O)c2cccs2)c2ccccc21 | 9.58 µM |
| CCCS(=O)(=O)N1CCc2cc(OC)c(OC)cc2C1 | > 10 µM (inactive) |
| Cc1cc(Nc2ccc3c(c2)OCCO3)c2cc(Cl)ccc2n1 | > 19.5 µM (inactive) |
